Experimental data reported in US7524823B2, “Macrolides” (Basilea Pharmaceutica AG, priority 2005, dated 2009).
≈ marks a conversion by molar mass, not a printed value.

Columns and labels:
Format in all cases: cell-based
[1] = system: Haemophilus influenzae 12214; test: MIC by broth microdilution (CAMHB + 5% Fildes enrichment, NCCLS); settings: code G: Haemophilus influenzae 12214
Method: (§1) MIC values for non-anaerobes were obtained by broth microdilution using CAMHB (BBL) according to NCCLS guidelines (National Committee for Clinical Laboratory Standards. Methods for dilution antimicrobial susceptibility tests for bacteria that grow aerobically, 5th ed. Approved standard M7-A6. NCCLS, Wayne, Pa., 2003). Drugs were dissolved in DMSO prior to dispensing into 96-well microtitre plates; the concentration of DMSO in assay wells never exceeded 2% (v/v). CAMHB was supplemented with 5% (v/v) horse serum (Sigma, cat. no. H-1270) in lieu of laked horse blood for cultivation of Streptococcus pneumoniae, and with 5% (v/v) Fildes enrichment (BBL, cat. no. 220810) supernate in lieu of Haemophilus Test Medium and additives for cultivation of Haemophilus influenzae (Pankuch G A, Hoellman D B, Lin G, Bajaksouzian S, Jacobs M R, Appelbaum P C. Activity of HMR 3647 compared to those of five agents against Haemophilus influenzae and Moraxella catarrhalis by MIC determination and time-kill assay. Antimicrob. Agents Chemother. November 1998; 42(11): 3032-4). Activities expressed as the minimal inhibitory concentrations (MICs) (μg/ml) are given in the following Table 3, and the microorganisms used for testing are listed in Table 2 below.

[2] = system: Haemophilus influenzae QK50; test: as above; settings: code H: Haemophilus influenzae QK50
Method: as §1

[3] = system: Streptococcus pneumoniae 1/1; test: MIC by broth microdilution (CAMHB + 5% horse serum, NCCLS); settings: code D: Streptococcus pneumoniae 1/1
Method: as §1

[4] = system: Streptococcus pneumoniae Tupelo; test: as above; settings: code F: Streptococcus pneumoniae Tupelo
Method: as §1

[5] = system: Streptococcus pneumoniae SL199T; test: as above; settings: code E: Streptococcus pneumoniae SL199T
Method: as §1

[6] = system: Propionibacterium acnes SW101T; test: MIC by anaerobic broth microdilution (WCB, NCCLS); settings: code K: Propionibacterium acnes SW101T, 35-37° C., 48 h
Method: (§2) MIC values towards strains of propionibacteria were obtained by broth microdilution using WCB (Anaerobe Broth MIC, Difco) according to NCCLS guidelines (National Committee for Clinical Laboratory Standards. Methods for anti-microbial susceptibility testing of anaerobic bacteria, 5th ed.; approved standard. NCCLS publication no. M11-A5. NCCLS, Wayne, Pa., 2001). Microtitre plates were loaded into 7-L GENbox anaerobic incubation jars (BioMérieux, cat. no. 96 128) fitted with anaerobic atmosphere generators (BioMérieux, cat. no. 96 124) and a Dry Anaerobic Indicator Strip (BBL, cat. no. 271051). Under these conditions, an O2 concentration <0.1% was achieved by 2.5 h, and a CO2 concentration >15% by 24 h. MIC values were read after incubation at 35-37° C. for 48 h (Table 3).

[7] = system: Propionibacterium acnes EG7NS; test: MIC by anaerobic broth microdilution (WCB, NCCLS); settings: code I: Propionibacterium acnes EG7NS; anaerobic, 35-37° C., 48 h
Method: as §2

[8] = system: Escherichia coli ATCC 25922; test: MIC by broth microdilution (CAMHB, NCCLS); settings: code C: Escherichia coli ATCC 25922
Method: as §1

[9] = system: Staphylococcus aureus 1086; test: MIC by broth microdilution (CAMHB, NCCLS); settings: code B: Staphylococcus aureus 1086
Method: as §1

[10] = system: Staphylococcus aureus ATCC 29213; test: MIC by broth microdilution (CAMHB, NCCLS); settings: code A: Staphylococcus aureus ATCC 29213
Method: as §1

Compound | MIC [1] | MIC [2] | MIC [3] | MIC [4] | MIC [5] | MIC [6] | MIC [7] | MIC [8] | MIC [9] | MIC [10]
CC[C@H]1OC(=O)[C@H](C)[C@@H](O[C@H]2C[C@@](C)(OC)[C@@H](O)[C@H](C)O2)[C@H](C)[C@@H](O[C@@H]2O[C@H](C)C[C@H](N(C)C)[C@H]2O)[C@](C)(OC)C[C@@H](C)C(=O)[C@H](C)[C@H]2[C@H](SCCCN3C(=O)c4ccccc4C3=O)C(=O)O[C@@]21C [Example 15] | 4 µg/mL | 4 µg/mL | <=0.06 μg/ml | 2 µg/mL | 1 µg/mL | 16 µg/mL (≈ 16.1 µM) | <=0.06 μg/ml | >32 µg/mL | >=32 μg/ml | 1 µg/mL (≈ 1.01 µM)
CC[C@H]1OC(=O)[C@H](C)[C@@H](O[C@H]2C[C@@](C)(OC)[C@@H](O)[C@H](C)O2)[C@H](C)[C@@H](O[C@@H]2O[C@H](C)C[C@H](N(C)C)[C@H]2O)[C@](C)(OC)C[C@@H](C)C(=O)[C@H](C)[C@H]2[C@H](SCCn3ncc4c(N)ncnc43)C(=O)O[C@@]21C [Example 13] | 4 µg/mL | 4 µg/mL | <=0.06 μg/ml | 0.25 µg/mL | 0.125 µg/mL | 2 µg/mL (≈ 2.07 µM) | <=0.06 μg/ml | >=32 μg/ml | 16 µg/mL (≈ 16.6 µM) | 2 µg/mL (≈ 2.07 µM)
CC[C@H]1OC(=O)[C@H](C)[C@@H](O[C@H]2C[C@@](C)(OC)[C@@H](O)[C@H](C)O2)[C@H](C)[C@@H](O[C@@H]2O[C@H](C)C[C@H](N(C)C)[C@H]2O)[C@](C)(OC)C[C@@H](C)C(=O)[C@H](C)[C@H]2[C@H](SCC(=O)NCc3ccccn3)C(=O)O[C@@]21C [Example 6] | 2 µg/mL | 2 µg/mL | <=0.06 μg/ml | 2 µg/mL | 1 µg/mL | >32 µg/mL | <=0.06 μg/ml | >=32 μg/ml | >32 µg/mL | 0.5 µg/mL (≈ 0.525 µM)
CC[C@H]1OC(=O)[C@H](C)[C@@H](O[C@H]2C[C@@](C)(OC)[C@@H](O)[C@H](C)O2)[C@H](C)[C@@H](O[C@@H]2O[C@H](C)C[C@H](N(C)C)[C@H]2O)[C@](C)(OC)C[C@@H](C)C(=O)[C@H](C)[C@H]2[C@H](SCCCN3C(=O)c4cccnc4C3=O)C(=O)O[C@@]21C [Example 5] | 8 µg/mL | 8 µg/mL | <=0.06 μg/ml | 16 µg/mL | 8 µg/mL | 16 µg/mL (≈ 16.1 µM) | <=0.06 μg/ml | >32 µg/mL | >32 µg/mL | 2 µg/mL (≈ 2.02 µM)
CC[C@H]1OC(=O)[C@H](C)[C@@H](O[C@H]2C[C@@](C)(OC)[C@@H](O)[C@H](C)O2)[C@H](C)[C@@H](O[C@@H]2O[C@H](C)C[C@H](N(C)C)[C@H]2O)[C@](C)(OC)C[C@@H](C)C(=O)[C@H](C)[C@H]2[C@H](SCC(=O)Nc3ccc(C)c(C)c3)C(=O)O[C@@]21C [Example 22] | 8 µg/mL | 8 µg/mL | <=0.06 μg/ml | 8 µg/mL | 8 µg/mL | 32 µg/mL (≈ 33.2 µM) | <=0.06 μg/ml | >32 µg/mL | 32 µg/mL (≈ 33.2 µM) | 2 µg/mL (≈ 2.07 µM)
CC[C@H]1OC(=O)[C@H](C)[C@@H](O[C@H]2C[C@@](C)(OC)[C@@H](O)[C@H](C)O2)[C@H](C)[C@@H](O[C@@H]2O[C@H](C)C[C@H](N(C)C)[C@H]2O)[C@](C)(OC)C[C@@H](C)C(=O)[C@H](C)[C@H]2[C@H](SCCn3ccc(-c4cccnc4)n3)C(=O)O[C@@]21C [Example 17] | 4 µg/mL | 4 µg/mL | <=0.06 μg/ml | 1 µg/mL | 0.5 µg/mL | 16 µg/mL (≈ 16.4 µM) | <=0.06 μg/ml | >32 µg/mL | >32 µg/mL | 1 µg/mL (≈ 1.03 µM)
CC[C@H]1OC(=O)[C@H](C)[C@@H](O[C@H]2C[C@@](C)(OC)[C@@H](O)[C@H](C)O2)[C@H](C)[C@@H](O[C@@H]2O[C@H](C)C[C@H](N(C)C)[C@H]2O)[C@](C)(OC)C[C@@H](C)C(=O)[C@H](C)[C@H]2[C@H](SCC(=O)Nc3ccc(C(=O)OC)c(OC)c3)C(=O)O[C@@]21C [Example 24] | 8 µg/mL | 8 µg/mL | <=0.06 μg/ml | 8 µg/mL | 4 µg/mL | >32 µg/mL | <=0.06 μg/ml | >32 µg/mL | >=32 μg/ml | 1 µg/mL (≈ 0.975 µM)

Further lines, results first:

MIC [1] | MIC [2] | MIC [3] | MIC [4] | MIC [5] | MIC [6] | MIC [7] | MIC [8] | MIC [9] | MIC [10] | Compound
>32 µg/mL | >32 µg/mL | 2 µg/mL | 16 µg/mL | 4 µg/mL | 8 µg/mL (≈ 8.02 µM) | 2 µg/mL (≈ 2.01 µM) | >32 µg/mL | >32 µg/mL | 32 µg/mL (≈ 32.1 µM) | CC[C@H]1OC(=O)[C@H](C)[C@@H](O[C@H]2C[C@@](C)(OC)[C@@H](O)[C@H](C)O2)[C@H](C)[C@@H](O[C@@H]2O[C@H](C)C[C@H](N(C)C)[C@H]2O)[C@](C)(OC)C[C@@H](C)C(=O)[C@H](C)[C@H]2[C@H](S(=O)(=O)CCn3cnc4c(N)ncnc43)C(=O)O[C@@]21C [Example 7]
2 µg/mL | 2 µg/mL | <=0.06 μg/ml | 0.5 µg/mL | 0.125 µg/mL | 1 µg/mL (≈ 1.02 µM) | 0.125 µg/mL (≈ 0.128 µM) | >=32 μg/ml | >32 µg/mL | 1 µg/mL (≈ 1.02 µM) | CC[C@H]1OC(=O)[C@H](C)[C@@H](O[C@H]2C[C@@](C)(OC)[C@@H](O)[C@H](C)O2)[C@H](C)[C@@H](O[C@@H]2O[C@H](C)C[C@H](N(C)C)[C@H]2O)[C@](C)(OC)C[C@@H](C)C(=O)[C@H](C)[C@H]2[C@H](SCCCn3cnc4c(N)ncnc43)C(=O)O[C@@]21C [Example 16]
2 µg/mL | 2 µg/mL | <=0.06 μg/ml | 1 µg/mL | 0.25 µg/mL | 4 µg/mL (≈ 4.14 µM) | 0.125 µg/mL (≈ 0.13 µM) | >32 µg/mL | >32 µg/mL | 4 µg/mL (≈ 4.14 µM) | CC[C@H]1OC(=O)[C@H](C)[C@@H](O[C@H]2C[C@@](C)(OC)[C@@H](O)[C@H](C)O2)[C@H](C)[C@@H](O[C@@H]2O[C@H](C)C[C@H](N(C)C)[C@H]2O)[C@](C)(OC)C[C@@H](C)C(=O)[C@H](C)[C@H]2[C@H](SCCNc3ncnc4[nH]cnc34)C(=O)O[C@@]21C [Example 9]
8 µg/mL | 8 µg/mL | <=0.06 μg/ml | 1 µg/mL | 0.5 µg/mL | 16 µg/mL (≈ 15.7 µM) | <=0.06 μg/ml | >32 µg/mL | 16 µg/mL (≈ 15.7 µM) | 2 µg/mL (≈ 1.96 µM) | CC[C@H]1OC(=O)[C@H](C)[C@@H](O[C@H]2C[C@@](C)(OC)[C@@H](O)[C@H](C)O2)[C@H](C)[C@@H](O[C@@H]2O[C@H](C)C[C@H](N(C)C)[C@H]2O)[C@](C)(OC)C[C@@H](C)C(=O)[C@H](C)[C@H]2[C@H](SCCN(C)CCn3cnc4c(N)ncnc43)C(=O)O[C@@]21C [Example 14]
2 µg/mL | 2 µg/mL | <=0.06 μg/ml | 1 µg/mL | 0.5 µg/mL | 4 µg/mL (≈ 4.22 µM) | <=0.06 μg/ml | >32 µg/mL | >32 µg/mL | 1 µg/mL (≈ 1.05 µM) | CC[C@H]1OC(=O)[C@H](C)[C@@H](O[C@H]2C[C@@](C)(OC)[C@@H](O)[C@H](C)O2)[C@H](C)[C@@H](O[C@@H]2O[C@H](C)C[C@H](N(C)C)[C@H]2O)[C@](C)(OC)C[C@@H](C)C(=O)[C@H](C)[C@H]2[C@H](SCCn3cnc4ccccc43)C(=O)O[C@@]21C [Example 19]
